In ChEMBL document CHEMBL6109139, “Rational Design of the First Dual Agonist at Trace Amine-Associated Receptor 1 and 5-HT2C Receptors Based on Binding Pocket Similarity for the Treatment of Schizophrenia and Alzheimer's Disease-Related Psychosis” (J Med Chem, 2025):

What was measured:
Cytochrome P450 1A2 = Cytochrome P450 1A2 (Homo sapiens, UniProt P05177); test: Inhibition of CYP1A2 in human liver microsomes in presence of NADPH by LC-MS/MS analysis; format: ADME, Microsome
[1] = Metabolic stability in human liver microsomes assessed as intrinsic clearance at 1 uM incubated for 60 mins by LC-MS/MS analysis; format: ADME, Microsome; conditions: read-out: CLH
[2] = Plasma protein binding in human assessed as unbound fraction by LC-MS/MS analysis; format: ADME, cell-free
[3] = Plasma protein binding in dog assessed as unbound fraction by LC-MS/MS analysis; format: ADME, cell-free, Canis lupus familiaris
Cytochrome P450 2C8 = Cytochrome P450 2C8 (Homo sapiens, UniProt P10632); test: Inhibition of CYP2C8 in human liver microsomes in presence of NADPH by LC-MS/MS analysis; format: ADME, Microsome
[4] = Apparent permeability across apical to basolateral side in human Caco-2 cells at 2 uM by LC-MS/MS analysis; format: ADME, cell-based
Cytochrome P450 2C9 = Cytochrome P450 2C9 (Homo sapiens, UniProt P11712); test: Inhibition of CYP2C9 in human liver microsomes in presence of NADPH by LC-MS/MS analysis; format: ADME, Microsome
[5] = Drug uptake in male Sprague-Dawley rat brain assessed as parent compound remaining measured after 6 hrs; format: ADME, tissue-based; conditions: read-out: Activity
Cytochrome P450 2B6 = Cytochrome P450 2B6 (Homo sapiens, UniProt P20813); test: Inhibition of CYP2B6 in human liver microsomes in presence of NADPH by LC-MS/MS analysis; format: ADME, Microsome
Cytochrome P450 2C19 = Cytochrome P450 2C19 (Homo sapiens, UniProt P33261); test: Inhibition of CYP2C19 in human liver microsomes in presence of NADPH by LC-MS/MS analysis; format: ADME, Microsome
[6] = Metabolic stability in rat liver microsomes assessed as intrinsic clearance at 1 uM incubated for 60 mins by LC-MS/MS analysis; format: ADME, Microsome; conditions: read-out: CLH
Cytochrome P450 3A4 = Cytochrome P450 3A4 (Homo sapiens, UniProt P08684); test: Inhibition of CYP3A4 in human liver microsomes in presence of NADPH by LC-MS/MS analysis; format: ADME, Microsome
[7] = Plasma protein binding in rat assessed as unbound fraction by LC-MS/MS analysis; format: ADME, cell-free
[8] = Efflux ratio of apparent permeability across apical to basolateral side in human Caco-2 cells at 2 uM by LC-MS/MS analysis; format: ADME, cell-based
[9] = target: T1, 5-hydroxytryptamine receptor 2C (Homo sapiens, UniProt P28335); test: Partial agonist activity at recombinant human 5-HT2CR expressed in HEK293 cells incubated for 2 hrs by FLIPR calcium assay; format: functional, cell-based
T1 sequence (P28335 whole entry): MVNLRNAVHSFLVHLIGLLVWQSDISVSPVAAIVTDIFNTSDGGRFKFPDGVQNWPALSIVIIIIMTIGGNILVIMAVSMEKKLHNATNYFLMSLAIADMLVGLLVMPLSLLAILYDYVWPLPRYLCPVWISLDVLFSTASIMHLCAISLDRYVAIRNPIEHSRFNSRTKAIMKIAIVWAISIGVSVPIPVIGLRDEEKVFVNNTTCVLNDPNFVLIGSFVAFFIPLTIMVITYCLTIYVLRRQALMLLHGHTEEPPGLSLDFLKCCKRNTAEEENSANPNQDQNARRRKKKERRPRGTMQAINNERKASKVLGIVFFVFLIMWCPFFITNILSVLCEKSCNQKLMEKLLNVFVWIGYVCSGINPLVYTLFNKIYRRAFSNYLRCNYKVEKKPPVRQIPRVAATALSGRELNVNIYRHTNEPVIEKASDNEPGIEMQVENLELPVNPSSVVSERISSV

[10] = Inhibition of CYP2D6 in human liver microsomes in presence of NADPH by LC-MS/MS analysis; format: ADME, Microsome

Cytochrome P450 1A2, sequence (P05177 whole entry): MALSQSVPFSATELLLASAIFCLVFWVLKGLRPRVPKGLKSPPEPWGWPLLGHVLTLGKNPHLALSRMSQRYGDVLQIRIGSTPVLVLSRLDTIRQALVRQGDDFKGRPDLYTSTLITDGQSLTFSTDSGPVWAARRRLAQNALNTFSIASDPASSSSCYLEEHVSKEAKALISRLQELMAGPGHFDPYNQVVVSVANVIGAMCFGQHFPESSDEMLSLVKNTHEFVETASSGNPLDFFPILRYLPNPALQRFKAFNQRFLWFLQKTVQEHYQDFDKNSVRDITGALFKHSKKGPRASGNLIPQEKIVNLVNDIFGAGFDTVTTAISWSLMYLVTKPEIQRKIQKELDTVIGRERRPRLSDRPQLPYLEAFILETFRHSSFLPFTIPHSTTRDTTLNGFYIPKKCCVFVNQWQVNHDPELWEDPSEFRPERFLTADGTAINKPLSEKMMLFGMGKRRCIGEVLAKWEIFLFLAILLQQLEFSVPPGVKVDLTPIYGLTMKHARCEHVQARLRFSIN
Cytochrome P450 3A4, sequence (P08684 whole entry): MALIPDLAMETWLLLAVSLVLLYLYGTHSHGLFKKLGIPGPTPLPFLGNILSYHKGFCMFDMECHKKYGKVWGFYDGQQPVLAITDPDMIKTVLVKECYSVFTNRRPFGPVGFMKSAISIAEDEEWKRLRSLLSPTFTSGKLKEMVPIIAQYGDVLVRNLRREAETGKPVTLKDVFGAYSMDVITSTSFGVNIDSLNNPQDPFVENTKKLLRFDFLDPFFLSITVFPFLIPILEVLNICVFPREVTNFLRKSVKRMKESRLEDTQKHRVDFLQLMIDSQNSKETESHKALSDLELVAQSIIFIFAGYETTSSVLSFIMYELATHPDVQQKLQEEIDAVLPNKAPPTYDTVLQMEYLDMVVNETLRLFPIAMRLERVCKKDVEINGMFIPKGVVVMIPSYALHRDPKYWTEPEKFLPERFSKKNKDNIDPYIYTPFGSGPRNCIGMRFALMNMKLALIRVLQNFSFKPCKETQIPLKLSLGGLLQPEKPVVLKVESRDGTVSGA
Cytochrome P450 2B6, sequence (P20813 whole entry): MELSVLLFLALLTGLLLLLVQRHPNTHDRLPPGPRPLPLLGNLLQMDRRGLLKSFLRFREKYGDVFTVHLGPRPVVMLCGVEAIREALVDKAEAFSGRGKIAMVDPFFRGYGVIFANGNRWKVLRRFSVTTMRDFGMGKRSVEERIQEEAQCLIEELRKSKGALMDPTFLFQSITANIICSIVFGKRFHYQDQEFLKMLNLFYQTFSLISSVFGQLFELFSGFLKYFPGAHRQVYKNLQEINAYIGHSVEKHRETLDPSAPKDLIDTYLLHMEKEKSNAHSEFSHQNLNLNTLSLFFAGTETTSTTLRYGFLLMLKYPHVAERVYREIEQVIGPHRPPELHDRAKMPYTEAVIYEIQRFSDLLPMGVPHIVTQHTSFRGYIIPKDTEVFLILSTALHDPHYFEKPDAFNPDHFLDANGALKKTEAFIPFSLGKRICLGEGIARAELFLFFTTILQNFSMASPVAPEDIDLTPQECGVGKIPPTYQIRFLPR
Cytochrome P450 2C9, sequence (P11712 whole entry): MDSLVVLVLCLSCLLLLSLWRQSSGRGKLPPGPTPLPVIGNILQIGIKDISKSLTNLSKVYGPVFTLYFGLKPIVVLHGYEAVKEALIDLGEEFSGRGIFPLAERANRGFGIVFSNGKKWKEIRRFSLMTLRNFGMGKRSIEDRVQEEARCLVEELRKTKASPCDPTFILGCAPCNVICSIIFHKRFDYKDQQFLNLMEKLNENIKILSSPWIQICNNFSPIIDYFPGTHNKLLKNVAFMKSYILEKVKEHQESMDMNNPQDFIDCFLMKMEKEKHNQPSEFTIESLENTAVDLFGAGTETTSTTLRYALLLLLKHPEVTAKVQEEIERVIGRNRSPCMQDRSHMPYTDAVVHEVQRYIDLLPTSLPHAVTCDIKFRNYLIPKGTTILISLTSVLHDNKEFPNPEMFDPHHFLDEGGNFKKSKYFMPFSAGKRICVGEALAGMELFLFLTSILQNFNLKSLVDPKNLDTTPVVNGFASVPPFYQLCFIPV
Cytochrome P450 2C8, sequence (P10632 whole entry): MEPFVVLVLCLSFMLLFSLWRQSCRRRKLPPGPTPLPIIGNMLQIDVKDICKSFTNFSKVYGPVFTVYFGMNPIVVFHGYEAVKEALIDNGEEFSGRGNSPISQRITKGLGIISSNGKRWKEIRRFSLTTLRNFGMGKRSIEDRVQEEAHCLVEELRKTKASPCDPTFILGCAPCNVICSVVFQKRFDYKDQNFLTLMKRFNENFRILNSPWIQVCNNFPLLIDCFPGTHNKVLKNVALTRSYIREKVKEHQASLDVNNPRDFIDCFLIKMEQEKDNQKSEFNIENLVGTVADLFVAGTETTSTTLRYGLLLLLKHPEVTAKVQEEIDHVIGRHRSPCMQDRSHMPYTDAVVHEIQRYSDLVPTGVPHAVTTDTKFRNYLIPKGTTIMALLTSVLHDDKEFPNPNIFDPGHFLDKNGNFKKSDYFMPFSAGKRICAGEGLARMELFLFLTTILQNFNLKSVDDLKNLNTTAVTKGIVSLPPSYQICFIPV
Cytochrome P450 2C19, sequence (P33261 whole entry): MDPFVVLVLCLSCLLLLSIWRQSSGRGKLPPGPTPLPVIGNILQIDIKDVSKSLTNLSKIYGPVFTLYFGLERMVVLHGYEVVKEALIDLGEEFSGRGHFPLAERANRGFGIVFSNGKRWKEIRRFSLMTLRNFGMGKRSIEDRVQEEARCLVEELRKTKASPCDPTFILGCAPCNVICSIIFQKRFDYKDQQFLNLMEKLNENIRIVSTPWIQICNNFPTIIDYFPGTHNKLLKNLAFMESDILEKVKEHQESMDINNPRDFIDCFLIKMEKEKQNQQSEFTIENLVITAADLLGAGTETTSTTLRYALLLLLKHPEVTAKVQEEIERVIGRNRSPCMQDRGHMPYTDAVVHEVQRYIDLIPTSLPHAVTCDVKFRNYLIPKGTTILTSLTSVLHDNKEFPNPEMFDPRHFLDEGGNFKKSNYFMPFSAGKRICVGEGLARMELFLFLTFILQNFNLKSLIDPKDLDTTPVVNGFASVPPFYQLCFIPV

Q: With `COc1ccsc1C1CNCCO1` (stereo in doubt; 25a) as the compound, how does the IC50 (Cytochrome P450 1A2) read?
A: > 50 µM

Q: What about the CLint scaled at 1 µM [1] of the same compound?
A: < 6.8 mL/min/kg

Q: What about the fraction unbound [2] of the same compound?
A: 0.747

Q: What about the fraction unbound [3] of the same compound?
A: 0.73

Q: And the IC50 (Cytochrome P450 2C8)?
A: > 50 µM

Q: And the Papp A→B at 2 µM [4]?
A: 46 ×10⁻⁶ cm/s

Q: And the IC50 (Cytochrome P450 2C9)?
A: > 50 µM

Q: What about the remaining at 6 h [5] of the same compound?
A: < 20%

Q: And the IC50 (Cytochrome P450 2B6)?
A: > 50 µM

Q: And the IC50 (Cytochrome P450 2C19)?
A: > 50 µM

Q: And the CLint scaled at 1 µM [6]?
A: < 13.5 mL/min/kg

Q: What about the IC50 (Cytochrome P450 3A4) of the same compound?
A: > 50 µM

Q: And the fraction unbound [7]?
A: 0.872

Q: And the efflux ratio at 2 µM [8]?
A: 0.6

Q: And the EC50 [9]?
A: 4.39 µM

Q: And the IC50 [10]?
A: > 50 µM
